Experimental data as given in patent US10925283B2, “Microbiocidal phenylamidine derivatives” (SYNGENTA PARTICIPATIONS AG, priority 2016, dated 2021).

Columns and labels:
Assay type in all cases: in vivo
[1] = tested on: Blumeria graminis f. sp. tritici (Erysiphe graminis f. sp. tritici); experiment: Blumeria graminis f. sp. tritici / wheat / leaf disc preventative (powdery mildew on wheat); conditions: foliar, wheat leaf segments cv. Kanzler, inoculated 1 day after application, assessed 6-8 days after application, read-out: control of Blumeria graminis f. sp. tritici (percent disease control compared to untreated)
Experimental: Blumeria graminis f. sp. tritici (Erysiphe graminis f. sp. tritici)/Wheat/Leaf Disc Preventative (Powdery Mildew on Wheat) Wheat leaf segments cv. Kanzler are placed on agar in a multiwell plate (24-well format) and sprayed with the formulated test compound diluted in water. The leaf disks are inoculated by shaking powdery mildew infected plants above the test plates 1 day after application. The inoculated leaf disks are incubated at 20° C. and 60% rh under a light regime of 24 h darkness followed by 12 h light/12 h darkness in a climate chamber and the activity of a compound is assessed as percent disease control compared to untreated when an appropriate level of disease damage appears on untreated check leaf segments (6-8 days after application).

[2] = tested on: Puccinia recondita f. sp. tritici; experiment: Puccinia recondita f. sp. tritici / wheat / leaf disc curative (brown rust); conditions: foliar, wheat leaf segments cv. Kanzler, compound applied 1 day after inoculation, assessed 6-8 days after application, read-out: control of Puccinia recondita f. sp. tritici (percent disease control compared to untreated)
Experimental: Puccinia recondita f. Sp. Tritici/Wheat/Leaf Disc Curative (Brown Rust) Wheat leaf segments cv. Kanzler are placed on agar in multiwell plates (24-well format). The leaf segments are inoculated with a spore suspension of the fungus. Plates are stored in darkness at 19° C. and 75% rh. The formulated test compound diluted in water is applied 1 day after inoculation. The leaf segments are incubated at 19° C. and 75% rh under a light regime of 12 h light/12 h darkness in a climate cabinet and the activity of a compound is assessed as percent disease control compared to untreated when an appropriate level of disease damage appears in untreated check leaf segments (6-8 days after application).

[3] = tested on: Puccinia recondita f. sp. tritici; experiment: Puccinia recondita f. sp. tritici / wheat / leaf disc preventative (brown rust); conditions: foliar, wheat leaf segments cv. Kanzler, inoculated 1 day after application, assessed 7-9 days after application, read-out: control of Puccinia recondita f. sp. tritici (percent disease control compared to untreated)
Experimental: Puccinia recondita f. Sp. Tritici/Wheat/Leaf Disc Preventative (Brown Rust) Wheat leaf segments cv. Kanzler are placed on agar in multiwell plates (24-well format) and sprayed with the formulated test compound diluted in water. The leaf disks are inoculated with a spore suspension of the fungus 1 day after application. The inoculated leaf segments are incubated at 19° C. and 75% rh under a light regime of 12 h light/12 h darkness in a climate cabinet and the activity of a compound is assessed as percent disease control compared to untreated when an appropriate level of disease damage appears in untreated check leaf segments (7-9 days after application).

Measured: pest or weed control at 200 ppm

CCN(C)/C=N/c1cc(OC)c(C(O)(COCc2ccco2)C(F)(F)F)cc1C (stereo not drawn) [E.023, N-ethyl-N′-[5-methoxy-2-methyl-4-[2,2,2-trifluoro-1-(2-furylmethoxymethyl)-1-hydroxy-ethyl]phenyl]-N-methyl-formamidine]
≥ 80%: all assays above

CCN(C)/C=N/c1cc(OC)c(C(O)(COC2CCC2)C(F)(F)F)cc1C (stereo not drawn) [E.025, N′-[4-[1-(cyclobutoxymethyl)-2,2,2-trifluoro-1-hydroxy-ethyl]-5-methoxy-2-methyl-phenyl]-N-ethyl-N-methyl-formamidine]
≥ 80%: all assays above

CCN(C)/C=N/c1cc(OC)c(C(O)(COCCc2ccc(F)cc2)C(F)(F)F)cc1C (stereo not drawn) [E.026, N-ethyl-N′-[5-methoxy-2-methyl-4-[2,2,2-trifluoro-1-[2-(4-fluorophenyl)ethoxymethyl]-1-hydroxy-ethyl]phenyl]-N-methyl-formamidine]
≥ 80%: all assays above

CCN(C)/C=N/c1cc(OC)c(C(O)(COCc2ccccc2C)C(F)(F)F)cc1C (stereo not drawn) [E.029, N-ethyl-N′-[5-methoxy-2-methyl-4-[2,2,2-trifluoro-1-hydroxy-1-(o-tolylmethoxymethyl)ethyl]phenyl]-N-methyl-formamidine]
≥ 80%: all assays above

C=CCOCCOCC(O)(c1cc(C)c(/N=C/N(C)CC)cc1OC)C(F)(F)F (stereo not drawn) [E.030, N′-[4-[1-(2-allyloxyethoxymethyl)-2,2,2-trifluoro-1-hydroxy-ethyl]-5-methoxy-2-methyl-phenyl]-N-ethyl-N-methyl-formamidine]
≥ 80%: all assays above

CCN(C)/C=N/c1cc(OC)c(C(O)(COCC2CC2(F)F)C(F)(F)F)cc1C (stereo not drawn) [E.031, N′-[4-[1-[(2,2-difluorocyclopropyl)methoxymethyl]-2,2,2-trifluoro-1-hydroxy-ethyl]-5-methoxy-2-methyl-phenyl]-N-ethyl-N-methyl-formamidine]
≥ 80%: all assays above

CCC1CCC(OCC(O)(c2cc(C)c(/N=C/N(C)CC)cc2OC)C(F)(F)F)CC1 (stereo not drawn) [E.033, N-ethyl-N′-[4-[1-[(4-ethylcyclohexoxy)methyl]-2,2,2-trifluoro-1-hydroxy-ethyl]-5-methoxy-2-methyl-phenyl]-N-methyl-formamidine]
≥ 80%: all assays above

CCN(C)/C=N/c1cc(OC)c(C(O)(COCC2(CC)COC2)C(F)(F)F)cc1C (stereo not drawn) [E.034, N-ethyl-N′-[4-[1-[(3-ethyloxetan-3-yl)methoxymethyl]-2,2,2-trifluoro-1-hydroxy-ethyl]-5-methoxy-2-methyl-phenyl]-N-methyl-formamidine]
≥ 80%: all assays above

CCN(C)/C=N/c1cc(OC)c(C(O)(COCc2cccc(C)c2)C(F)(F)F)cc1C (stereo not drawn) [E.035, N-ethyl-N′-[5-methoxy-2-methyl-4-[2,2,2-trifluoro-1-hydroxy-1-(m-tolylmethoxymethyl)ethyl]phenyl]-N-methyl-formamidine]
≥ 80%: all assays above
